Assay results reported in patent publication US7307100B2, “2-Benzoylchromone derivatives” (Merck Patent GmbH, priority 2002, dated 2007).

Key:
PKB = PKB (Homo sapiens, UniProt P31749); test: Inhibition of PKB (serine/threonine kinase); assay type: biochemical; conditions: read-out: Inhibition of PKB expressed in IC50
Experimental: (§1) The 2-benzoylchromone derivatives were tested as tyrosine kinase inhibitors (see Table 1: Inhibition of TIE-2), but also as serine/threonine kinase inhibitors (see Table 1: PKB).

TIE-2 = TIE-2 (Homo sapiens, UniProt Q02763); test: Inhibition of TIE-2 (tyrosine kinase); assay type: biochemical; conditions: read-out: Inhibition of TIE-2 expressed in IC50
Sequence of TIE-2 (Q02763 23-1124): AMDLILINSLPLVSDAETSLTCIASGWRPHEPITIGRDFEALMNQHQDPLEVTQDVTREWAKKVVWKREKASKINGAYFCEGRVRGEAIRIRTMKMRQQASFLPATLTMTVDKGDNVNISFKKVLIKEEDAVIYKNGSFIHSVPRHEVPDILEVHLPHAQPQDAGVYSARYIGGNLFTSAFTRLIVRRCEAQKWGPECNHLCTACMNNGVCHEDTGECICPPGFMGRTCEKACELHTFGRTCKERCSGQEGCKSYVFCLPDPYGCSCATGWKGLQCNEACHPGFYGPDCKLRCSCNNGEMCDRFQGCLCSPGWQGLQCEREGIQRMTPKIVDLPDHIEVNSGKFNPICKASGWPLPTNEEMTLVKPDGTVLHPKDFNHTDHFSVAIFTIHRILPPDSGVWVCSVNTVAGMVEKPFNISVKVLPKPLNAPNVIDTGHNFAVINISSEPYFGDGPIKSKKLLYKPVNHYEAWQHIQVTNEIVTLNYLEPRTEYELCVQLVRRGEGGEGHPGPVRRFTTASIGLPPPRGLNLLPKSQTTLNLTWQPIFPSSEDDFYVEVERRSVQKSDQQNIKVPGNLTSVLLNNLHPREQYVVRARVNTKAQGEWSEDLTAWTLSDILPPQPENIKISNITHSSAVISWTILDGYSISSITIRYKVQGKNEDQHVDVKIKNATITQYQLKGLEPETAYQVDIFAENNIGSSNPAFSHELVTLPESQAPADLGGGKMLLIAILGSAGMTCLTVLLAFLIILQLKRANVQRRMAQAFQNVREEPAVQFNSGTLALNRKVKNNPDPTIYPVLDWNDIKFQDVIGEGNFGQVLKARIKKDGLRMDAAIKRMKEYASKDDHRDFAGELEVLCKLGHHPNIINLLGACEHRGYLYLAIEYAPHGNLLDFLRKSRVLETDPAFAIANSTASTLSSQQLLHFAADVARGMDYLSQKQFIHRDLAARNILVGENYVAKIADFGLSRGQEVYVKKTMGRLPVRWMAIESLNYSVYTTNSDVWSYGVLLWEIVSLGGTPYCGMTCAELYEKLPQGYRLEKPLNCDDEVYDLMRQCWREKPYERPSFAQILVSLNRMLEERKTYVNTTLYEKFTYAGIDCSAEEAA
Experimental: as §1

Sequence of PKB (P31749 whole entry): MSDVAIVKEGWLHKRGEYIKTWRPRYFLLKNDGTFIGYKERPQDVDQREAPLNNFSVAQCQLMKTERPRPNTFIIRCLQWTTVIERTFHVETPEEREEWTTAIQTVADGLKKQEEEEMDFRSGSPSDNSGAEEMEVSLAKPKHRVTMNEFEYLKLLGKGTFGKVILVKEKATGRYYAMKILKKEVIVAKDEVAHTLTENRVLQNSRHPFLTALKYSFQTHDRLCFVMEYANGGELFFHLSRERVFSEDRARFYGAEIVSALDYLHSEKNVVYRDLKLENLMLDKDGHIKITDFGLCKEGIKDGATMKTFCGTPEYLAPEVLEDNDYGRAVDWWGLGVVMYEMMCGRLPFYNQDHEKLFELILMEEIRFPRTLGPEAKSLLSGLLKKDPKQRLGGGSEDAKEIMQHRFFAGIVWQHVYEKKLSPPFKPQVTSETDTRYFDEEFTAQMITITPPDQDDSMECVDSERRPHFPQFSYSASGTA

| Structure (SMILES) | IC50 (PKB) [µM] | IC50 (TIE-2) [µM] |
| --- | --- | --- |
| O=C(c1cc(=O)c2c(O)cccc2o1)c1ccc(O)cc1O [5-hydroxy-2-(2′,4′-dihydroxybenzoyl)chromone] | > 30 | > 10 |
| O=C(c1cc(=O)c2cc(O)ccc2o1)c1cc2c(cc1O)OCO2 [6-hydroxy-2-(2′-hydroxy-4′,5′-methylenedioxybenzoyl)chromone] | > 30 | > 10 |
| O=C(c1cc(=O)c2cc3c(cc2o1)OCO3)c1cc2c(cc1O)OCO2 [6,7-methylenedioxy-2-(2′-hydroxy-4′,5′-methylenedioxybenzoyl)chromone] | > 30 | 3.6 |
